Source: ChEMBL document CHEMBL1131552, “Identification of side chains on 1,2,5-thiadiazole-azacycles optimal for muscarinic m1 receptor activation” (Bioorg Med Chem Lett, 1998)

How the values were obtained:
[1] = target: Muscarinic acetylcholine receptor
[2] = target: T1, Muscarinic acetylcholine receptor M1 (Homo sapiens, UniProt P11229)
T1 sequence (P11229 whole entry): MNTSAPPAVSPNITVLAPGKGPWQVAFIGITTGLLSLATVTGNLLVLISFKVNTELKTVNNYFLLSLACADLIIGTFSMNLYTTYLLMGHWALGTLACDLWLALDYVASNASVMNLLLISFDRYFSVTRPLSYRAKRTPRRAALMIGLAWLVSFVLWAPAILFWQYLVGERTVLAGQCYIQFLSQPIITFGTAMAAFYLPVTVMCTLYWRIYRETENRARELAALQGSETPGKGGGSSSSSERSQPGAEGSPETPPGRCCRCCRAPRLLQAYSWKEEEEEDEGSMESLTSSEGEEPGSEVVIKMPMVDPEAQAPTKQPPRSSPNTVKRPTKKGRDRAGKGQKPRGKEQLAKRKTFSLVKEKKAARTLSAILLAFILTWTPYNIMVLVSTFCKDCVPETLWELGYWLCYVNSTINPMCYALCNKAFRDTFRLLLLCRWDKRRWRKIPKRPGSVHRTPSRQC
Description: Stimulation of phosphoinositide hydrolysis in A9L cells expressing human m1 receptor

[3] = target: T2, Muscarinic acetylcholine receptor M2 (Homo sapiens, UniProt P08172)
T2 sequence (P08172 whole entry): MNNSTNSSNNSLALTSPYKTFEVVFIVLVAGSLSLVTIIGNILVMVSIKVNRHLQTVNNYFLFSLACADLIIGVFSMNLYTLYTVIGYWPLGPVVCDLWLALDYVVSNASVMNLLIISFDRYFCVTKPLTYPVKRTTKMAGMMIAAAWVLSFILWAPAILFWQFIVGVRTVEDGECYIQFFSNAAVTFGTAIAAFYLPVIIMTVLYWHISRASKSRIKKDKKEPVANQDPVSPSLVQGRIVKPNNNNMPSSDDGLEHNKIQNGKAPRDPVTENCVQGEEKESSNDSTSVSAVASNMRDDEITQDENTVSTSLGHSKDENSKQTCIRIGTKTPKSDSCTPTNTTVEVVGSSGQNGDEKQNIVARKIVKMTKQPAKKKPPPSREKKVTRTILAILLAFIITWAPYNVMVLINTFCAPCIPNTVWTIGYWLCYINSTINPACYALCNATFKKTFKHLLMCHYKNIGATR
Description: Stimulation of cAMP in CHO cells expressing human m2 receptor

[4] = target: Muscarinic acetylcholine receptor; assay: Binding affinity against muscarinic receptor in rat brain membranes using oxotremorine-M as ligand; assay type: cell membranes
[5] = target: T1, Muscarinic acetylcholine receptor M1; assay: Effective concentration required for stimulation of phosphoinositide hydrolysis in A9L cells expressing human m1 receptor; assay type: functional, cell-based
[6] = target: T3, Muscarinic acetylcholine receptor M1 (Homo sapiens) (UniProt P11229); assay: Stimulation of phosphoinositide hydrolysis in BHK cells; assay type: functional, cell-based
T3 sequence (whole entry): T1 sequence (P11229 whole entry)

[7] = Potency ratio of EC50 of the CHO cell lines to that of A9L cell lines was calculated; assay type: functional

| SMILES | IC50 [1] [nM] | EC50 [3] [nM] | also measured |
| --- | --- | --- | --- |
| C(#Cc1ccccc1)COc1nsnc1[C@@H]1CN2CCC[C@@H]1C2 | – | 29 | IC50 [4]: 3.4 nM |
| CCCCCCCCOc1nsnc1C1=CCCN(C)C1 | 30 | – | – |
| C(#Cc1ccccc1)CSc1nsnc1[C@H]1CN2CCC[C@H]1C2 | 1.7 | 2 | EC50 [5]: 0.2 nM |
| CCCCCCOc1nsnc1[C@H]1CN2CCC[C@H]1C2 | 1.2 | – | – |
| C(#Cc1ccccc1)CSc1nsnc1[C@@H]1CN2CCC[C@H]1C2 | 363 | > 10000 | EC50 [2]: 1 nM |
| c1ccc(CCCSc2nsnc2[C@H]2CN3CCC[C@H]2C3)cc1 | 1.3 | – | – |
| CCCCCOc1nsnc1C1=CCCN(C)C1 | 2 | – | – |
| CCCCCCOc1nsnc1[C@H]1CN2CC[C@H]1C2 | 0.73 | – | – |
| CCCCCCOc1nsnc1C1CN2CCC1CC2 (stereo not given) | 4.3 | – | – |
| CCCOc1nsnc1C1=CCCN(C)C1 | 1.6 | – | – |
| C(#Cc1ccccc1)COc1nsnc1[C@@H]1CN2CCC[C@H]1C2 | 66 | 227 | EC50 [2]: 28.3 nM |
| CN1CCC=C(c2nsnc2OCCc2ccccc2)C1 | 15 | – | – |
| COc1cccc(C#CCO/N=C2\CN3CCC2C3)c1 (stereo not given) | 167 | 28000 | EC50 [2]: > 1000 nM; Max PI [6]: 14% |
| CCCCCCOc1nsnc1[C@@H]1CN2CC[C@H]1C2 (stereo in doubt; 13) | 16 | – | – |
| C(#Cc1ccccc1)COc1nsnc1C1CN2CCC1CC2 (stereo not given) | 4.7 | 62 | EC50 [2]: 15.7 nM |
| CN1CCC=C(c2nsnc2OCC#Cc2ccccc2)C1 | 8.5 | 240 | Potency ratio [7]: 2; EC50 [2]: 110 nM |
| c1ccc(CCCSc2nsnc2C2CN3CCC2CC3)cc1 (stereo not given) | 14 | – | – |
| CN1CCC=C(c2nsnc2SCCc2ccccc2)C1 | 23 | – | – |
| CCCCCCOc1nsnc1[C@@H]1CN2CCC[C@H]1C2 | 63 | – | – |
| c1ccc(CCCSc2nsnc2[C@@H]2CN3CCC[C@H]2C3)cc1 | 35 | – | – |
| CCCCCCCOc1nsnc1C1=CCCN(C)C1 | 6.2 | – | – |
| CCOc1nsnc1C1=CCCN(C)C1 | 5.7 | – | – |
| COc1nsnc1C1=CCCN(C)C1 | 22 | – | – |

Further lines, with some results ahead:

| IC50 [1] [nM] | EC50 [3] [nM] | SMILES | also measured |
| --- | --- | --- | --- |
| 14 | 779 | C(#Cc1ccccc1)COc1nsnc1C12CN3CC1C2C3 | EC50 [2]: 70.5 nM |
| 1.3 | – | CN1CCC=C(c2nsnc2SCCCc2ccccc2)C1 | – |
| 13 | – | CN1CCC=C(c2nsnc2OCCCc2ccccc2)C1 | – |
| 5.9 | – | CN1CCC=C(c2nsnc2SCc2ccccc2)C1 | – |
| 42 | 139 | C(#Cc1ccccc1)CSc1nsnc1[C@@H]1CN2CC[C@H]1C2 | EC50 [2]: > 100 nM |
| 78 | 2250 | C(#Cc1ccccc1)COc1nsnc1[C@H]1CN2CCC[C@@H]1C2 | – |
| 6 | – | CCCCCCOc1nsnc1[C@@H]1CN2CC[C@H]1C2 (stereo in doubt; 26) | – |
| 1.2 | 9 | C(#Cc1ccccc1)COc1nsnc1[C@H]1CN2CCC[C@H]1C2 | EC50 [2]: 0.5 nM |
| 20 | – | CN1CCC=C(c2nsnc2OCCCCc2ccccc2)C1 | – |
| 0.8 | 11 | C(#Cc1ccccc1)COc1nsnc1[C@H]1CN2CCC1C2 (stereo not given in full) | EC50 [2]: 0.99 nM |
| 1.7 | – | c1ccc(CCCSc2nsnc2[C@H]2CN3CC[C@H]2C3)cc1 | – |
| 20 | 1100 | C(#Cc1ccccc1)COc1nsnc1[C@@H]1CN2CC[C@H]1C2 | EC50 [2]: 67.3 nM |
| 41 | 1080 | C(#Cc1ccccc1)COc1nsnc1[C@H]1CN2CC[C@@H]1C2 | EC50 [2]: 159 nM |
| 8 | – | CN1CCC=C(c2nsnc2OCc2ccccc2)C1 | – |
